Measurements from the NIST ThermoML archive (doi:10.1021/je700546r).
Numbers after ± are expanded uncertainties.

Assay: molar heat capacity at constant pressure
Settings: 100 kPa, Small (less than 1 g) adiabatic calorimetry

ON=C1CCCCC1 [cyclohexanone oxime]
Settings	molar heat capacity at constant pressure [J/K/mol]
5 K, Crystal 3	0.3674 ± 0.023
10 K, Crystal 3	2.982 ± 0.058
15 K, Crystal 3	7.554 ± 0.12
20 K, Crystal 3	12.9 ± 0.14
25 K, Crystal 3	18.36 ± 0.16
30 K, Crystal 3	23.53 ± 0.18
35 K, Crystal 3	28.21 ± 0.2
40 K, Crystal 3	32.42 ± 0.23
45 K, Crystal 3	36.26 ± 0.25
50 K, Crystal 3	39.78 ± 0.27
60 K, Crystal 3	45.91 ± 0.29
70 K, Crystal 3	51.28 ± 0.33
80 K, Crystal 3	56.24 ± 0.35
90 K, Crystal 3	60.87 ± 0.4
100 K, Crystal 3	65.47 ± 0.42
110 K, Crystal 3	69.94 ± 0.44
120 K, Crystal 3	74.33 ± 0.46
130 K, Crystal 3	78.7 ± 0.48
140 K, Crystal 3	83.1 ± 0.5
150 K, Crystal 3	87.59 ± 0.52
160 K, Crystal 3	92.16 ± 0.55
170 K, Crystal 3	96.94 ± 0.57
180 K, Crystal 3	102.1 ± 0.6
190 K, Crystal 3	107.7 ± 0.6
200 K, Crystal 3	113.9 ± 0.7
210 K, Crystal 3	122.3 ± 0.7
220 K, Crystal 3	132.6 ± 0.7
230 K, Crystal 3	141.9 ± 0.8
240 K, Crystal 3	150.7 ± 0.8
250 K, Crystal 2	153.4 ± 0.8
260 K, Crystal 2	163.4 ± 0.9
270 K, Crystal 2	174.5 ± 0.9
280 K, Crystal 2	184.4 ± 1
290 K, Crystal 2	191.9 ± 1
298.15 K, Crystal 2	196.2 ± 1.1
300 K, Crystal 2	197.1 ± 1.1
310 K, Crystal 1	192.8 ± 1
320 K, Crystal 1	197.5 ± 1.1
330 K, Crystal 1	203 ± 1.1
340 K, Crystal 1	209 ± 1.1
350 K, Crystal 1	215.2 ± 1.1
360 K, Crystal 1	221.1 ± 1.2
362.2 K, Crystal 1	222.4 ± 1.2
362.2 K, Liquid	271.5 ± 1.4
365 K, Liquid	273.1 ± 1.4
370 K, Liquid	276 ± 1.4
